In patent US20050059585A1, “Methionine aminopeptidase-2 inhibitors and methods of use thereof” (Praecis Pharmaceuticals Inc., priority 2000, published 2005):

Key:
Assay in all cases: tumor cell line panel, SRB growth assay
Assay type in all cases: cell-based
ACHN = conditions: Homo sapiens, Renal, 48 hours
Protocol: (§1) The compound of example 5 was also evaluated against a panel of cancer cell lines (Alley, M.C. et al. […] Cancer Research 48: 589-601; Grever, M. R., et al. (1992) Seminars in Oncology, Vol. 19, No. 6, pp 622-638; Boyd, M. R., and Paull, K. D. (1995) Drug Development Research 34: 91-109). The human tumor cell lines of the cancer screening panel were grown in RPMI 1640 medium containing 5% fetal bovine serum and 2 mM L-glutamine. Cells were inoculated into 96 well microtiter plates in 100 μL at plating densities ranging from 5,000 to 40,000 cells/well depending on the doubling time of individual cell lines. After cell inoculation, the microtiter plates were incubated at 37° C., 5 % CO2, 95 % air and 100 % relative humidity for 24 hours prior to addition of experimental drugs.
(§2) After the 24 hour incubation period, two plates of each cell line were fixed in situ with TCA, to represent a measurement of the cell population for each cell line at the time of drug addition (Tz). Experimental drugs were solubilized in dimethyl sulfoxide at 400-fold the desired final maximum test concentration and stored frozen prior to use. At the time of drug addition, an aliquot of frozen concentrate was thawed and diluted to twice the desired final maximum test concentration with complete medium containing 50 μg/ml gentamicin. Additional four, 10-fold or ½ log serial dilutions were made to provide a total of five drug concentrations plus control. Aliquots of 100 μl of these different drug dilutions were added to the appropriate microtiter wells already containing 100 μl of medium, resulting in the required final drug concentrations.
(§3) Following drug addition, the plates were incubated for an additional 48 hours at 37° C., 5 % CO2, 95 % air, and 100 % relative humidity. For adherent cells, the assay was terminated by the addition of cold TCA. Cells were fixed in situ by the gentle addition of 50 μl of cold 50 % (w/v) TCA (final concentration, 10% TCA) and incubated for 60 minutes at 4° C. The supernatant was discarded, and the plates were washed five times with tap water and air dried. Sulforhodamine B (SRB) solution (100 μl) at 0.4 % (w/v) in 1 % acetic acid were added to each well, and plates were incubated for 10 minutes at room temperature. After staining, unbound dye was removed by washing five times with 1 % acetic acid and the plates were air dried. Bound stain was subsequently solubilized with 10 mM trizma base, and the absorbance was read on an automated plate reader at a wavelength of 515 nm. For suspension of the cells, the methodology used was the same except that the assay was terminated by fixing settled cells at the bottom of the wells by gently adding 50 μl of 80 % TCA (final concentration, 16% TCA). Using the seven absorbance measurements [time zero, (Tz), control growth, (C), and test growth in the presence of drug at the five concentration levels (Ti)], the percentage growth was calculated at each of the drug concentrations levels.
(§4) Percentage growth inhibition was calculated as: [(Ti−Tz)/(C−Tz)]×100 for concentrations for which Ti>/=Tz [(Ti−Tz)/Tz]×100 for concentrations for which Ti<Tz.
(§5) Growth inhibition of 50% (GI50) was calculated from [(Ti−Tz)/(C−Tz)]×100=50, which is the drug concentration resulting in a 50% reduction in the net protein increase (as measured by SRB staining) in control cells during the drug incubation. The G150 was calculated for each of the cell lines if the level of activity is reached; however, if the effect was not reached or is exceeded, the value for that parameter is expressed as greater or less than the maximum (10^−4 M) or minimum (10^−8 M) concentration tested.

HS 578T = conditions: Homo sapiens, Breast, 48 hours
Protocol: as §1, §2, §3, §4, §5

RXF 393 = conditions: Homo sapiens; RXF 393, Renal, 48 hours
Protocol: as §1, §2, §3, §4, §5

OVCAR-3 = conditions: Homo sapiens; OVCAR-3, Ovarian, 48 hours
Protocol: as §1, §2, §3, §4, §5

HOP-92 = conditions: Homo sapiens; HOP-92, Non-Small Cell Lung, 48 hours
Protocol: as §1, §2, §3, §4, §5

SF-268 = conditions: Homo sapiens; SF-268, CNS, 48 hours
Protocol: as §1, §2, §3, §4, §5

M14 = conditions: Homo sapiens; M14, Melanoma, 48 hours
Protocol: as §1, §2, §3, §4, §5

OVCAR-4 = conditions: Homo sapiens; OVCAR-4, Ovarian, 48 hours
Protocol: as §1, §2, §3, §4, §5

SF-539 = conditions: Homo sapiens; SF-539, CNS, 48 hours
Protocol: as §1, §2, §3, §4, §5

IGR-OV1 = conditions: Homo sapiens, IGROV-1; IGR-OV1, Ovarian, 48 hours
Protocol: as §1, §2, §3, §4, §5

HOP-62 = conditions: Homo sapiens; HOP-62, Non-Small Cell Lung, 48 hours
Protocol: as §1, §2, §3, §4, §5

HT29 = conditions: Homo sapiens, HT-29; HT29, Colon, 48 hours
Protocol: as §1, §2, §3, §4, §5

NCI/ADR-RES = conditions: Homo sapiens, Breast, 48 hours
Protocol: as §1, §2, §3, §4, §5

PC-3 = conditions: Homo sapiens; PC-3, Prostate, 48 hours
Protocol: as §1, §2, §3, §4, §5

MDA-MB-231/ATCC = conditions: Homo sapiens, Breast, 48 hours
Protocol: as §1, §2, §3, §4, §5

SN12C = conditions: Homo sapiens, Renal, 48 hours
Protocol: as §1, §2, §3, §4, §5

EKVX = conditions: Homo sapiens, Non-Small Cell Lung, 48 hours
Protocol: as §1, §2, §3, §4, §5

COLO 205 = conditions: Homo sapiens; COLO 205, Colon, 48 hours
Protocol: as §1, §2, §3, §4, §5

HCT-116 = conditions: Homo sapiens; HCT-116, Colon, 48 hours
Protocol: as §1, §2, §3, §4, §5

DU-145 = conditions: Homo sapiens; DU-145, Prostate, 48 hours
Protocol: as §1, §2, §3, §4, §5

For `CO[C@@H]1[C@H](OC(=O)N[C@@H](C(N)=O)C(C)C)CC[C@]2(CO2)[C@H]1[C@@]1(C)O[C@@H]1CC=C(C)C` [Example 5, (1-Carbamoyl-2-methyl-propyl)-carbamic acid-(3R, 4S, 5S, 6R )-5-methoxy-4-[(2R, 3R)-2-methyl-3-(3-methyl-but-2-enyl)-oxiranyl]-1-oxa-spiro[2.5]oct-6-yl ester], the GI50 (ACHN) was less than 0.01 µM, the GI50 (HS 578T) was 1.15 µM and the GI50 (RXF 393) was 40.2 µM. The GI50 (OVCAR-3) was 41.8 µM, the GI50 (HOP-92) was 33.9 µM and the GI50 (SF-268) was 26.1 µM. It also gave a GI50 (M14) of less than 0.01 µM, a GI50 (OVCAR-4) of 36.6 µM and a GI50 (SF-539) of 20.6 µM. For the same molecule, the GI50 (IGR-OV1) was less than 0.01 µM, the GI50 (HOP-62) was less than 0.01 µM and the GI50 (HT29) was 16.1 µM. It also gave a GI50 (NCI/ADR-RES) of 34.2 µM, a GI50 (PC-3) of 18 µM and a GI50 (MDA-MB-231/ATCC) of less than 0.01 µM. The GI50 (SN12C) was less than 0.01 µM, the GI50 (EKVX) was 20.8 µM and the GI50 (COLO 205) was less than 0.01 µM. It also gave a GI50 (HCT-116) of less than 0.01 µM and a GI50 (DU-145) of less than 0.01 µM.
